Experimental data taken from PubChem BioAssay (NCI).
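Following 48 hours of exposure in 96-well plates, responses at five concentrations were used to interpolate endpoints linearly. TGI: concentration producing complete growth inhibition.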

Columns and labels:
Assay in all cases: NCI-60 cell line screen, 48 h
UACC-62 melanoma = test system: UACC-62 melanoma
HOP-62 NSCLC = test system: HOP-62 NSCLC
COLO 205 colon = test system: COLO 205 colon
SK-MEL-5 melanoma = test system: SK-MEL-5 melanoma
IGROV1 ovarian = test system: IGROV1 ovarian
SF-539 CNS = test system: SF-539 CNS
HCT-15 colon = test system: HCT-15 colon
MOLT-4 leukemia = test system: MOLT-4 leukemia
SK-MEL-2 melanoma = test system: SK-MEL-2 melanoma
M14 melanoma = test system: M14 melanoma

Measured: TGI

CC(Oc1ccc(Cl)cc1Cl)C(=O)NN1C(=O)CSC1c1ccccc1 (stereo not given)
> 100 µM: all assays above
